{"source": "the supplement of paper PMC10949913", "assay_in_all_cases": "area under concentration-response curve (viability) (AUC (a.u.)); higher = less active", "settings_in_all_cases": "48 h", "key": {"CU-ACC2": {"system": "CU-ACC2", "procedure,_shortened": "(§1)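 Three adrenocortical carcinoma cell lines were seeded at 500–1,000 cells/well in 5 µL medium in 1,536-well plates. 23 nL of each MIPE 5.0 library compound was added at 11 concentrations. After 48 h (per the protocol name), CellTiter-Glo was added for 15 minutes at room temperature and luminescence was read. Signals were normalised per plate to vehicle and empty-well controls. AC50 and area under the curve came from fitted concentration-response curves, keeping only inhibitory or non-responding curve classes.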"}, "CU-ACC1": {"system": "CU-ACC1", "procedure,_shortened": "as §1"}, "NCI-H295R": {"system": "NCI-H295R", "procedure,_shortened": "as §1"}}, "data": [{"compound": "Cc1nc(NC(=O)N2CCC[C@H]2C(N)=O)sc1-c1csc(C(C)(C)C)n1", "values": [{"measurement": "area under concentration-response curve", "setting": "CU-ACC2", "value": 445}, {"measurement": "area under concentration-response curve", "setting": "CU-ACC1", "value": 414}, {"measurement": "area under concentration-response curve", "setting": "NCI-H295R", "value": 377}]}, {"compound": "Nc1cccc2c1CN([C@H]1CCC(=O)NC1=O)C2=O", "values": [{"measurement": "area under concentration-response curve", "setting": "CU-ACC2", "value": 544}, {"measurement": "area under concentration-response curve", "setting": "CU-ACC1", "value": 454}, {"measurement": "area under concentration-response curve", "setting": "NCI-H295R", "value": 498}]}, {"compound": "CCCC(CCC)C(=O)[O-]", "values": [{"measurement": "area under concentration-response curve", "setting": "CU-ACC2", "value": 482}, {"measurement": "area under concentration-response curve", "setting": "CU-ACC1", "value": 445}, {"measurement": "area under concentration-response curve", "setting": "NCI-H295R", "value": 442}]}, {"compound": "NC(=O)c1cccc(-c2cccc(OC(=O)NC3CCCCC3)c2)c1", "values": [{"measurement": "area under concentration-response curve", "setting": "CU-ACC2", "value": 485}, {"measurement": "area under concentration-response curve", "setting": "CU-ACC1", "value": 480}, {"measurement": "area under concentration-response curve", "setting": "NCI-H295R", "value": 470}]}, {"compound": "C[N]1C=C(C=N1)C2=C3\\C=N/NC(=O)C4=C3C(=CC(=C4)NC(=O)[C@H](N)C5CCCCC5)[NH]2", "values": [{"measurement": "area under concentration-response curve", "setting": "CU-ACC2", "value": 594}, {"measurement": "area under concentration-response curve", "setting": "CU-ACC1", "value": 530}, {"measurement": "area under concentration-response curve", "setting": "NCI-H295R", "value": 555}]}, {"compound": "[O-]C(=O)C/1=N/C(=O)NC(=O)N1", "values": [{"measurement": "area under concentration-response curve", "setting": "CU-ACC2", "value": 608}, {"measurement": "area under concentration-response curve", "setting": "CU-ACC1", "value": 418}, {"measurement": "area under concentration-response curve", "setting": "NCI-H295R", "value": 551}]}, {"compound": "CN1CCN(C)C(=O)C1C2=CC=C(N/C3=N/C(=C\\N(C)C3=O)C4=C(C)C(=CC=C4)NC(=O)C5=CC6=C(CCCC6)S5)C=C2", "note": "(stereo not given)", "values": [{"measurement": "area under concentration-response curve", "setting": "CU-ACC2", "value": 612}, {"measurement": "area under concentration-response curve", "setting": "CU-ACC1", "value": 528}, {"measurement": "area under concentration-response curve", "setting": "NCI-H295R", "value": 580}]}, {"compound": "C[C@@H]1[C@H]\\2[C@H](O)[C@H]3[C@H](N(C)C)\\C(=C(C(N)=O)/C(=O)[C@@]3(O)\\C(=C2C(=O)C4=C(O)C=CC=C14)O)O", "values": [{"measurement": "area under concentration-response curve", "setting": "CU-ACC2", "value": 325}, {"measurement": "area under concentration-response curve", "setting": "CU-ACC1", "value": 406}, {"measurement": "area under concentration-response curve", "setting": "NCI-H295R", "value": 403}]}, {"compound": "C[S+](=O)([O-])c1cc(F)cc2c3c(n(Cc4ccc(Cl)cc4)c12)[C@@H](CC(=O)O)CC3", "values": [{"measurement": "area under concentration-response curve", "setting": "CU-ACC2", "value": 613}, {"measurement": "area under concentration-response curve", "setting": "CU-ACC1", "value": 536}, {"measurement": "area under concentration-response curve", "setting": "NCI-H295R", "value": 544}]}, {"compound": "COCCNc1cc(NC(=O)N2CCCc3cc(CN4CCN(C)CC4=O)c(C=O)nc32)ncc1C#N", "values": [{"measurement": "area under concentration-response curve", "setting": "CU-ACC2", "value": 550}, {"measurement": "area under concentration-response curve", "setting": "CU-ACC1", "value": 552}, {"measurement": "area under concentration-response curve", "setting": "NCI-H295R", "value": 564}]}, {"compound": "Nc1nc(N)nc(-c2cc(Cl)ccc2Cl)n1", "values": [{"measurement": "area under concentration-response curve", "setting": "CU-ACC2", "value": 441}, {"measurement": "area under concentration-response curve", "setting": "CU-ACC1", "value": 409}, {"measurement": "area under concentration-response curve", "setting": "NCI-H295R", "value": 410}]}, {"compound": "Cc1ccc(CN2CCNCC2)cc1NC(=O)CNc1ccc(F)c(F)c1", "values": [{"measurement": "area under concentration-response curve", "setting": "CU-ACC2", "value": 635}, {"measurement": "area under concentration-response curve", "setting": "CU-ACC1", "value": 531}, {"measurement": "area under concentration-response curve", "setting": "NCI-H295R", "value": 596}]}, {"compound": "C[C@]12CC[C@H]3[C@@H](CCC/4=C/C(=O)CC[C@]34C)[C@@H]1CC[C@@H]2OC(=O)CCC5CCCC5", "values": [{"measurement": "area under concentration-response curve", "setting": "CU-ACC2", "value": 618}, {"measurement": "area under concentration-response curve", "setting": "CU-ACC1", "value": 581}, {"measurement": "area under concentration-response curve", "setting": "NCI-H295R", "value": 569}]}, {"compound": "Cn1c(Nc2ccc(C(F)(F)F)cc2)nc2cc(Oc3ccnc(-c4nc(C(F)(F)F)c[nH]4)c3)ccc21", "values": [{"measurement": "area under concentration-response curve", "setting": "CU-ACC2", "value": 508}, {"measurement": "area under concentration-response curve", "setting": "CU-ACC1", "value": 369}, {"measurement": "area under concentration-response curve", "setting": "NCI-H295R", "value": 469}]}, {"compound": "C[C@@H]1CC[C@H]2[C@@H](C)C(=O)O[C@@H]3O[C@@]4(C)CC[C@@H]1[C@]32OO4", "values": [{"measurement": "area under concentration-response curve", "setting": "CU-ACC2", "value": 604}, {"measurement": "area under concentration-response curve", "setting": "CU-ACC1", "value": 547}, {"measurement": "area under concentration-response curve", "setting": "NCI-H295R", "value": 556}]}, {"compound": "O=C1NC(=O)/C(=C\\c2ccc(-c3ccc(F)cc3)o2)S1", "values": [{"measurement": "area under concentration-response curve", "setting": "CU-ACC2", "value": 572}, {"measurement": "area under concentration-response curve", "setting": "CU-ACC1", "value": 471}, {"measurement": "area under concentration-response curve", "setting": "NCI-H295R", "value": 522}]}, {"compound": "O=C(O)CNC(=O)C1C(=O)N(C2CCCCC2)C(=O)N(C2CCCCC2)C1=O", "values": [{"measurement": "area under concentration-response curve", "setting": "CU-ACC2", "value": 483}, {"measurement": "area under concentration-response curve", "setting": "CU-ACC1", "value": 473}, {"measurement": "area under concentration-response curve", "setting": "NCI-H295R", "value": 479}]}, {"compound": "CCCCCCCCCCCCCCCCCCOP(=O)([O-])OC1CC[N+](C)(C)CC1", "values": [{"measurement": "area under concentration-response curve", "setting": "CU-ACC2", "value": 534}, {"measurement": "area under concentration-response curve", "setting": "CU-ACC1", "value": 418}, {"measurement": "area under concentration-response curve", "setting": "NCI-H295R", "value": 449}]}, {"compound": "CCCC1OC2C[C@H]3[C@@H]4CCC5=CC(=O)C=C[C@]5(C)[C@H]4C(O)C[C@]3(C)[C@]2(C(=O)CO)O1", "note": "(stereo not given in full)", "values": [{"measurement": "area under concentration-response curve", "setting": "CU-ACC2", "value": 661}, {"measurement": "area under concentration-response curve", "setting": "CU-ACC1", "value": 562}, {"measurement": "area under concentration-response curve", "setting": "NCI-H295R", "value": 607}]}, {"compound": "CC(C)C(=O)Nc1ccc([N+](=O)[O-])c(C(F)(F)F)c1", "values": [{"measurement": "area under concentration-response curve", "setting": "CU-ACC2", "value": 627}, {"measurement": "area under concentration-response curve", "setting": "CU-ACC1", "value": 551}, {"measurement": "area under concentration-response curve", "setting": "NCI-H295R", "value": 570}]}]}
